According to patent US9206156B2, “Substituted indole derivatives” (GRÜNENTHAL GMBH, priority 2008, dated 2015):

How the values were obtained:
ORL1 receptor = molecular target: T1, ORL1 receptor (Homo sapiens, UniProt P41146); test: ORL1 receptor binding assay with 3H-nociceptin/orphanin FQ (WGA-SPA beads); settings: c=1 μM test substance; 0.5 nM 3H-nociceptin/orphanin FQ; membranes of recombinant CHO-ORL1 cells
T1 construct: expressed in transfected cells; host or cells: CHO (recombinant CHO-ORL1 cells), membranes
Experimental: Measurement of ORL1 Binding
The cyclohexane derivatives having the general formula I were investigated in a receptor binding assay with ^3H-nociceptin/orphanin FQ with membranes of recombinant CHO—ORL1 cells. This test system was conducted in accordance with the method described by Ardati et al. (Mol. Pharmacol., 51, 1997, p. 816-824). The concentration of ^3H-nociceptin/orphanin FQ in these tests was 0.5 nM. The binding assays were carried out with 20 μg amounts of membrane protein per 200 μl batch in 50 mM Hepes, pH 7.4, 10 mM MgCl2 and 1 mM EDTA. The binding to the ORL1 receptor was determined using 1 mg amounts of WGA-SPA beads (Amersham-Pharmacia, Freiburg, Germany), by incubation of the batch for one hour at room temperature and subsequent measurement in a Trilux scintillation counter (Wallac, Finland). The affinity is given in Table 1 as the nanomolar Ki value or in % inhibition at c=1 μM.

human μ-opiate receptor = molecular target: T2, human μ-opiate receptor (Homo sapiens, UniProt P35372); test: μ-opiate receptor binding assay with [3H] naloxone (WGA-SPA beads); settings: 1 μmol/l test substance, 1 nmol/l [3H] naloxone, CHO-K1 cell membranes expressing human μ-opiate receptor
T2 construct: purchased NEN, Zaventem, Belgium RB-HOM; host or cells: CHO-K1 cells (membrane preparation)
Experimental: The receptor affinity to the human μ-opiate receptor was determined in a homogeneous batch in microtitre plates. To this end, dilution series of the substituted indole derivative to be tested were incubated for 90 minutes at room temperature with a receptor membrane preparation (15-40 μg protein per 250 μl incubation batch) of CHO-K1 cells, which express the human μ-opiate receptor (RB—HOM receptor membrane preparation from NEN, Zaventem, Belgium), in the presence of 1 nmol/l of the radioactive ligand [^3H] naloxone (NET719, NEN, Zaventem, Belgium) and 1 mg of WGA-SPA beads (wheat germ agglutinin SPA beads from Amersham/Pharmacia, Freiburg, Germany) in a total volume of 250 μl. 50 mmol/l tris-HCl supplemented with 0.05 wt. % sodium azide and 0.06 wt. % bovine serum albumin were used as the incubation buffer. In order to determine the non-specific binding, 25 μmol/l of naloxone were also added. At the end of the ninety-minute incubation period the microtitre plates were centrifuged for 20 minutes at 1000 g and the radioactivity was measured in a β counter (Microbeta-Trilux, PerkinElmer Wallac, Freiburg, Germany). The percentage displacement of the radioactive ligand from its binding to the human μ-opiate receptor was determined at a test substance concentration of 1 μmol/l and stated as the percentage inhibition (% inhibition) of the specific binding. In some cases the percentage displacement due to differing concentrations of the compounds having the general formula I to be tested was used to calculate the IC50 inhibition concentrations which bring about a 50-percent displacement of the radioactive ligand. Ki values for the test substances were obtained by extrapolation using the Cheng-Prusoff equation.

T1 sequence (P41146 whole entry): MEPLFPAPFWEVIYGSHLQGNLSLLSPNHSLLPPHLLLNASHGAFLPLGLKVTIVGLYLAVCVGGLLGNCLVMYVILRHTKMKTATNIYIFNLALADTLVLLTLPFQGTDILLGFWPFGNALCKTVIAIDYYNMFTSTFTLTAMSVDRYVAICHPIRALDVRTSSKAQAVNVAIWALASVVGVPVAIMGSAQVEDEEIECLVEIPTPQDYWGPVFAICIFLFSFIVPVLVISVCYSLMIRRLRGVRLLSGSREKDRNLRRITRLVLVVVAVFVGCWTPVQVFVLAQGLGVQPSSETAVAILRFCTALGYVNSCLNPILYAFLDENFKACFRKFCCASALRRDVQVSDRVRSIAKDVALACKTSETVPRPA
T2 sequence (P35372 whole entry): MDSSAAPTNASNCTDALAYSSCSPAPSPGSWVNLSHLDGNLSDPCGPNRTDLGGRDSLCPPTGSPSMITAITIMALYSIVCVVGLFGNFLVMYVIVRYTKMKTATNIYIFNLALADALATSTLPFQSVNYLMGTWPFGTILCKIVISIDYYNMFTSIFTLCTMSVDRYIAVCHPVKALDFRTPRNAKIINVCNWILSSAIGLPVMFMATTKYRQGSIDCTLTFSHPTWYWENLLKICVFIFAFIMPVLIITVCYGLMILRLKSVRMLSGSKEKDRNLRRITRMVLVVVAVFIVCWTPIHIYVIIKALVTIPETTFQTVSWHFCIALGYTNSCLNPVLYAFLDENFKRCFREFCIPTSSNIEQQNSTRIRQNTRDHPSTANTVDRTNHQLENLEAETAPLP

Compound	inhibition at 1 µM (ORL1 receptor) [%]	inhibition at 1 µM (human μ-opiate receptor) [%]	also measured
CN(C)c1ccc2cc(C(=O)N3CCCC(C(=O)N4CCC(c5ccccc5)(N(C)C)CC4)C3)[nH]c2c1 (stereo not shown) [Example 136, (6-(dimethylamino)-1H-indol-2-yl)(3-(4-(dimethylamino)-4-phenylpiperidine-1-carbonyl)piperidin-1-yl)methanone]	24	46	–
CN(CCCN1CCC(c2cccs2)(N(C)C)CC1)C(=O)CCc1c[nH]c2ccccc12 [Example 21, N-(3-(4-(Dimethylamino)-4-(thiophen-2-yl)piperidin-1-yl)propyl)-3-(1H-indol-3-yl)-N-methylpropanamide]	62	87	–
CN(C)C1(c2cccs2)CCN(CCNCc2ccc3[nH]ccc3c2)CC1 [Example 69, 1-(2-((1H-Indol-5-yl)methylamino)ethyl)-N,N-dimethyl-4-(thiophen-2-yl)piperidin-4-amine]	90	96	–
CC(C)c1ccc2c(CNCCN3CCC(c4cccs4)(N(C)C)CC3)c[nH]c2c1 [Example 74, 1-(2-((6-Isopropyl-1H-indol-3-yl)methylamino)ethyl)-N,N-dimethyl-4-(thiophen-2-yl)pipendin-4-amine]	97	99	–
COc1ccc2[nH]cc(CN(C)CCN3CCC(c4ccccc4)(N(C)C)CC3)c2c1 [Example 191, 1-(2-(((5-methoxy-1H-indol-3-yl)methyl)(methyl)amino)ethyl)-N,N-dimethyl-4-phenylpiperidin-4-amine]	–	–	% Inhibition (ORL1) at 1 μM (ORL1 receptor): 80%; % Inhibition (μ) at 1 μM (human μ-opiate receptor; 1 µM): 96%
CN(CCN1CCC(c2ccccc2)(N(C)C)CC1)C(=O)CCc1cn(C)c2ccccc12 [Example 14, N-(2-(4-(Dimethylamino)-4-phenylpiperidin-1-yl)ethyl)-N-methyl-3-(1-methyl-1H-indol-3-yl)propanamide]	48	73	–
COc1ccc2[nH]c(C(=O)N(C)CCCN3CCC(c4cccs4)(N(C)C)CC3)cc2c1 [Example 22, N-(3-(4-(Dimethylamino)-4-(thiophen-2-yl)piperidin-1-yl)propyl)-5-methoxy-N-methyl-1H-indole-2-carboxamide]	25	70	–
CN(CCCN1CCC(c2ccccc2)(N(C)C)CC1)C(=O)c1ccc2cc[nH]c2c1 [Example 56, N-(3-(4-(Dimethylamino)-4-phenylpiperidin-1-yl)propyl)-N-methyl-1H-indole-6-carboxamide]	35	71	–
CN(C)C1(c2ccccc2)CCN(C(=O)CCNC(=O)c2ccc3cc[nH]c3c2)CC1 [Example 113, N-(3-(4-(dimethylamino)-4-phenylpiperidin-1-yl)-3-oxopropyl)-1H-indole-6-carboxamide]	57	89	–
CCCCC1(N(C)C)CCN(CCN(C)C(=O)c2ccc3cc[nH]c3c2)CC1 [Example 55, N-(2-(4-Butyl-4-(dimethylamino)piperidin-1-yl)ethyl)-N-methyl-1H-indole-6-carboxamide]	–	66	–
COc1ccc2[nH]cc(CN(C)CCN3CCC(c4ccccc4)(N(C)C)CC3)c2c1 [Example 192, 1-(2-(((5-methoxy-1H-indol-3-yl)methyl)(methyl)amino)ethyl)-N,N-dimethyl-4-phenylpiperidin-4-amine]	–	–	% Inhibition (ORL1) at 1 μM (ORL1 receptor): 76%; % Inhibition (μ) at 1 μM (human μ-opiate receptor; 1 µM): 96%
CN(C)C1(c2cccs2)CCN(C(=O)CC(NC(=O)C2CCCc3c2[nH]c2ccc(Cl)cc32)c2ccccc2)CC1 (stereo not shown) [Example 97, 6-chloro-N-(3-(4-(dimethylamino)-4-(thiophen-2-yl)piperidin-1-yl)-3-oxo-1-phenylpropyl)-2,3,4,9-tetrahydro-1H-carbazole-1-carboxamide]	77	70	–
CC(CC(=O)N(C)CCCN1CCC(c2cccs2)(N(C)C)CC1)c1c[nH]c2ccccc12 (stereo not shown) [Example 19, N-(3-(4-(Dimethylamino)-4-(thiophen-2-yl)piperidin-1-yl)propyl)-3-(1H-indol-3-yl)-N-methylbutanamide]	59	89	–
CCCCC1(N(C)C)CCN(CCN(C)Cc2cccc3[nH]ccc23)CC1 [Example 160, 1-(2-(((1H-indol-4-yl)methyl)(methy)amino)ethyl)-4-butyl-N,N-dimethylpiperidin-4-amine]	–	–	% Inhibition (μ) at 1 μM (human μ-opiate receptor): 87%
CN(CCN1CCC(c2ccccc2)(N2CCCC2)CC1)C(=O)c1ccc2cc[nH]c2c1 [Example 54, N-Methyl-N-(2-(4-phenyl-4-(pyrrolidin-1-yl)piperidin-1-yl)ethyl)-1H-indole-6-carboxamide]	–	15	–
CN(CCN1CCC(c2ccccc2)(N2CCCC2)CC1)C(=O)CCc1cn(C)c2ccccc12 [Example 48, N-Methyl-3-(1-methyl-1H-indol-3-yl)-N-(2-(4-phenyl-4-(pyrrolidin-1-yl)piperidin-1-yl)ethyl)propanamide]	–	14	–
CC(C)C(CC(=O)N(C)CCN1CCC(c2ccccc2)(N2CCCC2)CC1)c1c[nH]c2ccccc12 (stereo not shown) [Example 32, 3-(1H-Indol-3-yl)-N,4-dimethyl-N-(2-(4-phenyl-4-(pyrrolidin-1-yl)piperidin-1-yl)ethyl)pentanamide]	–	61	–
CN(CCN1CCC(c2ccccc2)(N2CCCC2)CC1)C(=O)c1c[nH]c2ccccc12 [Example 46, N-Methyl-N-(2-(4-phenyl-4-(pyrrolidin-1-yl)piperidin-1-yl)ethyl)-1H-indole-3-carboxamide]	–	20	–
COc1ccc2[nH]c(C(=O)N(C)CCN3CCC(c4ccccc4)(N4CCCC4)CC3)cc2c1 [Example 64, 5-Methoxy-N-methyl-N-(2-(4-phenyl-4-(pyrrolidin-1-yl)piperidin-1-yl)ethyl)-1H-indole-2-carboxamide]	–	18	–
CCCCC1(N(C)C)CCN(CCN(C)C(=O)c2c[nH]c3ccccc23)CC1 [Example 47, N-(2-(4-Butyl-4-(dimethylamino)piperidin-1-yl)ethyl)-N-methyl-1H-indole-3-carboxamide]	–	61	–
CN(CCN1CCC(c2ccccc2)(N2CCCC2)CC1)Cc1cccc2[nH]ccc12 [Example 159, N-((1H-indol-4-yl)methyl)-N-methyl-2-(4-phenyl-4-(pyrrolidin-1-yl)piperidin-1-yl)ethanamine]	–	64	–
CN(CCN1CCC(c2ccccc2)(N2CCCC2)CC1)C(=O)c1cccc2c1ccn2C [Example 40, N,1-Dimethyl-N-(2-(4-phenyl-4-(pyrrolidin-1-yl)piperidin-1-yl)ethyl)-1H-indole-4-carboxamide]	–	40	–
CC(CC(=O)N(C)CCN1CCC(c2ccccc2)(N2CCCC2)CC1)c1c[nH]c2ccccc12 (stereo not shown) [Example 57, 3-(1H-Indol-3-yl)-N-methyl-N-(2-(4-phenyl-4-(pyrrolidin-1-yl)piperidin-1-yl)ethyl)butanamide]	–	45	–
CCCCC1(N(C)C)CCN(CCN(C)C(=O)c2cc3cc(OC)ccc3[nH]2)CC1 [Example 65, N-(2-(4-Butyl-4-(dimethylamino)piperidin-1-yl)ethyl)-5-methoxy-N-methyl-1H-indole-2-carboxamide]	–	42	–
CN(CCN1CCC(c2ccccc2)(N2CCCC2)CC1)Cc1c[nH]c2ccccc12 [Example 137, N-((1H-indol-3-yl)methyl)-N-methyl-2-(4-phenyl-4-(pyrrolidin-1-yl)piperidin-1-yl)ethanamine]	–	82	–
CN(CCN1CCC(c2ccccc2)(N2CCCC2)CC1)Cc1c[nH]c2ccc(Br)cc12 [Example 153, N-((5-bromo-1H-indol-3-yl)methyl)-N-methyl-2-(4-phenyl-4-(pyrrolidin-1-yl)piperidin-1-yl)ethanamine]	–	93	–
CCCCC1(N(C)C)CCN(CCN(C)Cc2ccc3[nH]ccc3c2)CC1 [Example 141, 1-(2-(((1H-indol-5-yl)methyl)(methyl)amino)ethyl)-4-butyl-N,N-dimethylpiperidin-4-amine]	–	82	–
CCCCC1(N(C)C)CCN(CCN(C)C(=O)c2ccc3ccn(C)c3c2)CC1 [Example 38, N-(2-(4-Butyl-4-(dimethylamino)piperidin-1-yl)ethyl)-N,1-dimethyl-1H-indole-6-carboxamide]	–	68	–
